Laboratory results: paper PMC12648627, “Structural and functional characterization of a metagenomically derived γ‐type carbonic anhydrase and its engineering into a hyperthermostable esterase” (Protein Science : A Publication of the Protein Society, 2025)

How the values were obtained:
[1] = target: T1, γ-CaCAmut (Caloramator australicus, UniProt G0V3M6, V46E/T67E/G68E/Y159N, form not given); settings: pNPA as substrate, 25°C; 1 mM inhibitor
T1 construct: gene CAAU_0066

[2] = target: T1, γ-CaCAmut; test: spectrophotometric p-nitrophenol release at […] nm; format: biochemical; settings: 0.1 M KH2PO4, pH 8.0, 25°C; 0.4-3.5 mM p-NPA; esterase activity

T1 sequence (G0V3M6 1-167 G68E/T67E/V46E/Y159N limits assumed): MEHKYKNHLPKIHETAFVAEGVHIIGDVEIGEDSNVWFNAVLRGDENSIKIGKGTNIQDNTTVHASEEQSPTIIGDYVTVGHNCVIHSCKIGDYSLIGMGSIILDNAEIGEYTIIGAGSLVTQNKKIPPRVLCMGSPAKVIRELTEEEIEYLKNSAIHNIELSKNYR

Row | Km [2] [µM] | Structure (SMILES) | % inhibition at 1 mM [1]
1 | – | Nc1ccc(S(N)(=O)=O)cc1 [sulfanilamide] | Inhibition of γ‐CaCAmut by three common diagnostic CA inhibitors (sulfanilamide, azide, and EDTA)
2 | 960 ± 50 | CC(=O)Oc1ccc([N+](=O)[O-])cc1 [p-nitrophenyl acetate] | –
